≈ marks a conversion by molar mass, not a printed value. Where two headings read alike, the source gives them in different places.
How the values were obtained:
Format in all cases: cell-based
[1] = tested on: gram-positive and gram-negative bacteria; experiment: antibacterial spectrum and relative activity in vitro; conditions: for antibacterial spectrum in vitro: compared with gentamicin C1, C1a and C2
[2] = tested on: gram positive bacteria (e.g. Staphylococcus aureus) and gram negative bacteria (e.g. Escherichia coli and Pseudomonas aeruginosa); experiment: antibacterial activity determined by standard dilution tests; conditions: including bacteria resistant to the parent compounds
Staphylococcus aureus = experiment: in vitro minimal inhibitory concentration (MIC), standard tube dilution method; conditions: Mueller-Hinton broth
From the text: (§1) In Table 1, set forth below is shown the in vitro minimal inhibitory concentration (MIC) of gentamicin C2a against representative gram-positive and gram-negative bacteria. The results are derived using the standard tube dilution method in Mueller-Hinton broth.
(§2) In Table 2, set forth below is shown the in vitro minimal inhibitory concentration (MIC) of gentamicin C2b against representative gram-positive and gram-negative bacteria. The results are derived using the standard tube dilution method in Mueller-Hinton broth.

Klebsiella pneumoniae = experiment: as above
From the text: as §1, §2

Pseudomonas aeruginosa = experiment: as above
From the text: as §1, §2

Bacillus subtilis 663 = experiment: as above; conditions: strain 663, Mueller-Hinton broth
From the text: as §1, §2

Salmonella typhi. B. = experiment: as above; conditions: Salmonella enterica
From the text: as §1, §2

Escherichia coli = experiment: as above
From the text: as §1, §2

[3] = strain 17, Mueller-Hinton broth, read-out: MIC
[4] = strain 20, Mueller-Hinton broth
[5] = strain 762, Mueller-Hinton broth
[6] = strain 3223, Mueller-Hinton broth
[7] = strain St 138, gentamicin resistant, Mueller-Hinton broth
[8] = strain Travers, gentamicin resistant, Mueller-Hinton broth
[9] = ATCC10536, strain ATCC 10536, Mueller-Hinton broth
[10] = strain JR66, gentamicin resistant, Mueller-Hinton broth
[11] = strain LA 290/R55, gentamicin resistant, Mueller-Hinton broth

SMILES: CCN[C@@H]1C[C@H](N)[C@@H](O[C@H]2OC(CN)=CC[C@H]2N)[C@@H](O)[C@H]1O[C@H]1OC[C@](C)(O)[C@H](NC)[C@H]1O [1-N-ethyl-5-episisomicin]
- antibacterial activity / spectrum ([1]; general statement, some compared with parent antibiotics): enhanced antibacterial activity

SMILES: CN[C@@H]1[C@@H](O)[C@@H](O[C@@H]2[C@H](O)[C@H](O[C@H]3OC(CN)=CC[C@H]3N)[C@@H](N)C[C@H]2N)OC[C@@H]1O [5-epi-Antibiotic 66-40D]
- antibacterial activity in standard dilution tests [2]: active against gram positive bacteria (e.g. Staphylococcus aureus) and gram negative bacteria (e.g. Escherichia coli and Pseudomonas aeruginosa)

SMILES: CN[C@@H]1[C@@H](O)[C@@H](O[C@@H]2[C@@H](O)[C@H](O[C@H]3O[C@H]([C@H](C)N)CC[C@H]3N)[C@@H](N)C[C@H]2N)OC[C@]1(C)O [gentamicin C2a]
- MIC (Staphylococcus aureus; Staphylococcus aureus, strain 6538P, read-out: MIC): 0.3 µg/mL (≈ 0.647 µM)
- MIC (Staphylococcus aureus; strain 59N): 0.3 µg/mL (≈ 0.647 µM)
- MIC (Staphylococcus aureus; strain Ziegler): 0.3 µg/mL (≈ 0.647 µM)
- MIC (Klebsiella pneumoniae): 17.5 µg/mL (≈ 37.8 µM)
- MIC (Klebsiella pneumoniae; [3]): 0.8 µg/mL (≈ 1.73 µM)
- MIC (Pseudomonas aeruginosa; [4]): 3 µg/mL (≈ 6.47 µM)
- MIC (Pseudomonas aeruginosa; [5]): 0.8 µg/mL (≈ 1.73 µM)
- MIC (Pseudomonas aeruginosa; [6]): 0.3 µg/mL (≈ 0.647 µM)
- MIC (Pseudomonas aeruginosa; [7]): > 25 µg/mL
- MIC (Pseudomonas aeruginosa; [8]): > 25 µg/mL
- MIC (Bacillus subtilis 663): 0.1 µg/mL (≈ 0.216 µM)
- MIC (Salmonella typhi. B.): 0.3 µg/mL (≈ 0.647 µM)
- MIC (Escherichia coli; [9]): 0.3 µg/mL (≈ 0.647 µM)
- MIC (Escherichia coli; [10]): 7.5 µg/mL (≈ 16.2 µM)
- MIC (Escherichia coli; [11]): 17.5 µg/mL (≈ 37.8 µM)
- activity relative to the gentamicin C complex ([1]; as the free base, % of the activity of the gentamicin C complex): about 74%
- antibacterial spectrum in vitro [1]: substantially the same antibacterial spectrum in vitro as do gentamicin C1, C1a and C2

SMILES: CNC[C@@H]1CC[C@@H](N)[C@@H](O[C@H]2[C@H](O)[C@@H](O[C@H]3OC[C@](C)(O)[C@H](NC)[C@H]3O)[C@H](N)C[C@@H]2N)O1 [gentamicin C2b]
- MIC (Staphylococcus aureus; Staphylococcus aureus, strain wood, read-out: MIC): 0.075 µg/mL (≈ 0.162 µM)
- MIC (Staphylococcus aureus; strain 59N): 0.075 µg/mL (≈ 0.162 µM)
- MIC (Staphylococcus aureus; strain Ziegler): 0.075 µg/mL (≈ 0.162 µM)
- MIC (Klebsiella pneumoniae; [3]): 0.075 µg/mL (≈ 0.162 µM)
- MIC (Klebsiella pneumoniae; strain 3694, gentamicin resistant, Mueller-Hinton broth, read-out: MIC): 17.5 µg/mL (≈ 37.8 µM)
- MIC (Pseudomonas aeruginosa; [4]): 0.3 µg/mL (≈ 0.647 µM)
- MIC (Pseudomonas aeruginosa; [5]): 0.3 µg/mL (≈ 0.647 µM)
- MIC (Pseudomonas aeruginosa; [6]): 0.075 µg/mL (≈ 0.162 µM)
- MIC (Pseudomonas aeruginosa; [7]): 17.5 µg/mL (≈ 37.8 µM)
- MIC (Pseudomonas aeruginosa; [8]): > 25 µg/mL
- MIC (Bacillus subtilis 663): < 0.05 µg/mL
- MIC (Salmonella typhi. B.): 0.3 µg/mL (≈ 0.647 µM)
- MIC (Escherichia coli; [9]): 0.075 µg/mL (≈ 0.162 µM)
- MIC (Escherichia coli; [10]): 7.5 µg/mL (≈ 16.2 µM)
- MIC (Escherichia coli; [11]): > 25 µg/mL
- antibacterial spectrum in vitro [1]: substantially the same antibacterial spectrum in vitro as do gentamicin C1, C1a and C2

Source: patent US4000261A, “5-Epi-4,6-di-O-(aminoglycosyl)-2-deoxystreptamines, methods for their manufacture and intermediates useful therein, methods for their use as antibacterial agents and compositions useful therefor” (priority 1975, dated 1976)
